Experimental data from patent publication US20250154525A1, “PLANT VIRUS MOVEMENT PROTEINS AND METHODS OF USING SAME” (Molecular Transfer, Inc., priority 2016, published 2025).
Values joined by “and” are separate entries in the source; they are usually repeats but may differ in a detail not shown here. Equal entries are not always repeated.

Legend:
[1] = tested on: HeLa Cells; experiment: GFP plasmid transfection with DOTMA/DOPE plus surface ligand peptide, fluorescent plate reader (Example 1); type: cell-based; conditions: DOTMA/DOPE + peptide linked to R12 or K16; EF1Alpha eGFP plasmid; 42 hours
Experimental: (§1) Cells were plated to so that on the day of transfection the cells were 70% confluent in 96 well tissue culture plates. A DOMTA/DOPE Lipid solution (1:1 molar ratio) at 2 mg/mL in water were mixed with an equal volume cell surface ligand containing adhesion peptide, the plant virus movement protein, or peptide derived therefrom, that had the nucleic acid binding moiety RRRRRRRRRRRR (SEQ ID NO:109) or KKKKKKKKKKKKKKKK (SEQ ID NO: 102) covalently linked to the N-terminus, or C-terminus of each peptide during peptide synthesis. Peptides were at 2 mg/mL in water. The DOTMA/DOPE and the solution containing the cell surface ligand containing adhesion peptide, the plant virus movement protein, or peptide derived therefrom, surface ligand peptide the was diluted 1 to 1 (v/v) in water. DOMTA/DOPE/PEPTIDE solutions were added to 0.1 mL of a plasmid DNA solution (EF1Alpha eGFP plasmid) at 10 μg/mL in OptiMEM.
(§2) All solutions were at room temperature. A volume of 0.2 mL of a 10 μg/mL solution of DNA was aliquoted into each well of a non-tissue cultured treated plate. 1-12 μL of transfection reagents were added to DNA solutions respectively. The transfection reagent and DNA solution was mixed by pipetting up and down twice. Transfection complexes were formed for 10 minutes. After 10 minutes, 0.01 or 0.02 mL of the transfection complex was added to cells. HuVEC, HeLa, human adult keratinocytes, human primary adult fibroblast, and A549 cells all respectively received 0.01 mL of the transfection complex. Human skeletal muscle cells, mouse C2C12 cells, and Jurkat, cells received 0.02 mL of the transfection complex. Cells were incubated for 42 hours at 37° C. at 5% CO2. Plates were read on a fluorescent plate reader. Cells were also examined visually under a microscope to assess the extent of transfection (in terms of the percent of cells transfected) with a fluorescent microscope. Other modes of analysis, for example quantification with B-galactocidase or luciferase reports plasmids can also be used.
(§3) Surface ligand that caused increase expression of GFP over the lipid DOTMA with no surface ligand were considered to enhance transfection or had higher % cells transfected were considered to enhance transfection. Peptides that gave greater than 2-fold enhancement are noted in bold and could be further optimized by adding different transfection enhancers or could be used with different cationic lipids or polymers.
(§4) Tables 2-7, below, provide the results of the transfection enhancements with the various cell types, while Table 8 lists the peptides that were determined by visual inspection to enhance the transfection of the denoted cell lines over the lipid DOTMA.

[2] = tested on: HuVec Cells; experiment: as above; type: cell-based; conditions: DOTMA/DOPE + peptide linked to R12 or K16; EF1Alpha eGFP plasmid; 42 hours
Experimental: as §1, §2, §3, §4

[3] = tested on: Human Fibroblast Cells; experiment: as above; type: cell-based; conditions: DOTMA/DOPE + peptide linked to R12 or K16; EF1Alpha eGFP plasmid; 42 hours
Experimental: as §1, §2, §3, §4

[4] = tested on: Jurkat Cells; experiment: as above; type: cell-based; conditions: DOTMA/DOPE + peptide linked to R12 or K16; EF1Alpha eGFP plasmid; 42 hours
Experimental: as §1, §2, §3, §4

[5] = tested on: NL-1 iPS Cells; experiment: as above; type: cell-based; conditions: DOTMA/DOPE + peptide linked to R12 or K16; EF1Alpha eGFP plasmid; 42 hours
Experimental: as §1, §2, §3, §4

[6] = tested on: C2C12 Cells; experiment: as above; type: cell-based, mouse; conditions: DOTMA/DOPE + peptide linked to R12 or K16; EF1Alpha eGFP plasmid; 42 hours
Experimental: as §1, §2, §3, §4

[7] = tested on: some examined cell types; experiment: Summary of Example 1: transfection expression and % cells transfected over the no peptide control; type: cell-based; conditions: on some examined cell types
Experimental: as §1, §2, §3

[8] = tested on: HeLa Cells; experiment: GFP transfection with DOTMA/SEQ ID NO: 72 (fusogenic peptide)/peptide compared with Lipofectamine 2000; type: cell-based
Experimental: as §1, §2
The fusogenic peptide was added to the DOMTA/peptide formulation to achieve a final concentration of 0.1 mg/mL to see if transfection reagents were further enhanced by the addition of a fusogenic peptide and could provide higher transfection efficiency into HeLa cells and expression than the commercially available Lipofectamine 2000.

[9] = 0.1 μL of DOTMA/SEQ ID NO: 72/Peptide in well of a 96 well plate
[10] = 0.2 μL of DOTMA/SEQ ID NO: 72/Peptide in well of a 96 well plate
[11] = 0.3 μL of DOTMA/SEQ ID NO: 72/Peptide in well of a 96 well plate
[12] = 0.4 μL of DOTMA/SEQ ID NO: 72/Peptide in well of a 96 well plate

Substance	Relative Fluorescence of Transfection of HeLa Cells (RF) [1]	Relative Fluorescence of Transfection of HuVec Cells (RF) [2]	Relative Fluorescence of Transfection of Human Fibroblast Cells (RF) [3]	Relative Fluorescence of Transfection of Jurkat Cells (RF) [4]	Relative Fluorescence of Transfection of NL-1 iPS Cells (RF) [5]	Relative Fluorescence of Transfection of C2C12 Cells (RF) [6]	transfection expression and % cells transfected over the no peptide control [7]	Relative Fluorescence DOTMA/SEQ ID NO: 72/Peptide, HeLa Cells (RF) [8, 9]	Relative Fluorescence DOTMA/SEQ ID NO: 72/Peptide, HeLa Cells (RF) [8, 10]	Relative Fluorescence DOTMA/SEQ ID NO: 72/Peptide, HeLa Cells (RF) [8, 11]	Relative Fluorescence DOTMA/SEQ ID NO: 72/Peptide, HeLa Cells (RF) [8, 12]
371 (GPAGKDGEAGAQG) [compound 371]	5180	10669	4584	6093	17587	983	–	–	–	–	–
502 (RNIAEIIKDI) [compound 502]	–	–	–	–	–	2589	–	–	–	–	–
361 (YIGSR) [compound 361]	3698	6017	7014	7006	9363	585	increased transfection expression and the % cells transfected	–	–	–	–
205 (AASIKVAVSADR) [compound 205]	26368	8309	8550	2298	13140	2102	increased transfection expression and the % cells transfected	–	–	–	–
335 (TVFSVDQDNMLE) [compound 335]	26954	6350	8534	4567	14424	4689	–	12866	12458	11547	9753
359 (KAFDITYVRLKF) [compound 359]	3136	3024	3206	1880	5548	5693	increased transfection expression and the % cells transfected	–	–	–	–
226 (ANGQTPIQRYIK) [compound 226]	7340	20864	3431	12976	24920	1664	increased transfection expression and the % cells transfected	–	–	–	–
349 (RNIAEIIKDI) [compound 349]	4433	22907	8810	23167	33103	–	increased transfection expression and the % cells transfected	–	–	–	–
216 (YRVRVTPKEKTGPMKE) [compound 216]	6181	14693	3117	3570	19626	1001	increased transfection expression and the % cells transfected	–	–	–	–
363 (LAGSCLARFSTM) [compound 363]	2590	1383	3008	2432	4189	1080	–	–	–	–	–
327 (VAEIDGIEL) [compound 327]	5345	21018	4662	14546	31383	2043	increased transfection expression and the % cells transfected	–	–	–	–
239 (KNSFMALYLSKGRLVFALG) [compound 239]	2717	1404	4084	2343	4129	10620	increased transfection expression and the % cells transfected	–	–	–	–
236 (KNNQKSEPLIGRKKT) [compound 236]	7202 and 5042	14418	3630 and 3000	–	43542 and 22256	–	increased transfection expression and the % cells transfected	5993	8846	8492	7316
501 (DLGTAGSCLRRFSTM) [compound 501]	–	–	9473	12350	–	5913	increased transfection expression and the % cells transfected	23571	23993	20410	14749
393 (LGTIPG) [compound 393]	–	–	–	–	–	–	increased transfection expression and the % cells transfected	–	–	–	–
107 (RRRRRRRR) [compound 107]	75	–	–	–	1441	–	–	–	–	–	–
234 (YEKPGSPPREVVPRPRPGV) [compound 234]	3867	13956	4145	5441	14410	681	–	–	–	–	–
224 (KPDVRSYTITG) [compound 224]	5559	15945	5995	13170	25209	1469	–	–	–	–	–
235 (KARSFNVNQLLQD) [compound 235]	–	26940	–	–	–	–	–	–	–	–	–
